In brackets after ≈: the same amount, converted by molar mass. Where two headings read alike, the source gives them in different places.
How the values were obtained:
[1] = system: Naegleria fowleri ATCC® 30808™; assay: In vitro activity against Naegleria fowleri, alamarBlue colorimetric assay, strain ATCC 30808; assay type: cell-based; conditions: for IC50 / ATCC® 30808™ IC50: strain ATCC® 30808™, 48 hours at 37°C, mean ± standard deviation; for ATCC® 30808™ SI: selectivity index, CC50 in J774A.1 versus IC50 in strain ATCC® 30808™
Method: (§1) Two strains of Naegleria fowleri obtained from the American Type Culture Collection (ATCC® 30808™ and ATCC® 30215™) were used (LG Promochem, Barcelona, Spain). Both strains were grown in 2% (w/v) Bacto Casitone (Thermo Fisher Scientific, Madrid, Spain) supplemented with 10% (v/v) fetal bovine serum, 0.3 µg/ml penicillin G sodium salt and 0.5 mg/ml streptomycin sulphate (Sigma-Aldrich, Madrid, Spain) at 37°C.
(§2) All tested compounds were dissolved in dimethyl sulfoxide (DMSO). The in vitro activity of the selected compounds was assessed by a colorimetric assay based on the alamarBlue® reagent. Amoebas were seeded in 96-well plates at a concentration of 2 × 10^5 cells/ml ([…]). Next, serial dilutions (in the same medium as the amoebas) of the compound were prepared and added ([…]) to the wells containing the Naegleria fowleri cells. Lastly, 10% of the total volume of alamarBlue® was added to the wells and incubated under gentle stirring at 37°C for 48 hours. After that time, the emitted fluorescence was read on an EnSpire® Multimode Plate Reader (PerkinElmer, Spain) using a […] (Rizo-Liendo A. et al. "In Vitro Activity of Statins against Naegleria fowleri."; Pathog, vol. 8, no. 3, p. 122 - 2019; doi: 10.3390/ pathogens8030122).

[2] = system: murine macrophages J774A.1; assay: Cytotoxicity assay based on alamarBlue reagent; assay type: cell-based; conditions: cytotoxic concentration 50 against murine macrophages J774A.1; 24 hours at 37°C, 5% CO2; mean ± standard deviation
Method: (§3) The cells were cultured in DMEM (Dulbecco's Modified Eagle's Medium) supplemented with 10% fetal bovine serum and 10 µg/ml gentamicin (Sigma-Aldrich, Madrid, Spain). The culture was maintained at 37°C in a 5% CO2 atmosphere. To assess cytotoxicity, an assay based on the alamarBlue® reagent was carried out. Briefly, the murine macrophages (2 × 10^5 cells/ml) were incubated with serial dilutions of the test compound that were performed in the same culture medium. Lastly, alamarBlue® was added to each well and kept at 37°C and 5% CO2 for 24 hours.

[3] = system: Naegleria fowleri ATCC® 30215™; assay: In vitro activity against Naegleria fowleri, alamarBlue colorimetric assay, strain ATCC 30215; assay type: cell-based; conditions: for ATCC® 30215™ IC50 / IC50: Table 2, strain ATCC® 30215™, 48 hours at 37°C, mean ± standard deviation; for ATCC® 30215™ SI: selectivity index, CC50 in J774A.1 versus IC50 in strain ATCC® 30215™; for IC50: Naegleria fowleri, ATCC30215
Method: as §1, §2

[4] = Cytotoxicity assay based on alamarBlue reagent; assay type: cell-based; conditions: mouse, cytotoxic concentration 50 against murine macrophages J774A.1, 24 hours at 37°C, 5% CO2, mean ± standard deviation
Method: as §3

Naegleria fowleri = conditions: infected PAM patients; alone or in combination with other medicines; cited from earlier work
[5] = Naegleria fowleri, ATCC30808, Table 2, read-out: ATCC® 30808™ IC50

| Molecule | IC50 ([1]; Table 1) [µg/mL] | ATCC® 30808™ SI [1] | ATCC® 30215™ SI [3] | further results |
| --- | --- | --- | --- | --- |
| C=C1C[C@@H](O)[C@@H](Br)C(C)(C)[C@]12CC[C@@](C)(O)[C@@H](Cl)C2 [(-)-dendroidiol] | > 25 | – | – | – |
| C=C1C[C@H](O)[C@H](Br)C(C)(C)C12CCC(C)(Cl)C(Br)C2 (single isomer, unassigned; (-)) [(-)-rogiolol] | 8.18 ± 0.92 (≈ 19.7 µM) | 5.57 | – | CC50 [2]: 45.56 ± 7.80 µg/mL (≈ 110 µM); ATCC® 30808™ IC50 ([1]; Table 2): 8.18 ± 0.92 µg/mL |
| (-)-3,10-dibromo-4-chloro-alpha-chamigrene | > 25 | – | – | – |
| debromolauriterol | – | 2.74 | 1.07 | CC50 [2]: 15.17 ± 2.80 µg/mL; ATCC® 30808™ IC50 ([1]; Table 2): 5.54 ± 1.19 µg/mL; ATCC® 30215™ IC50 [3]: 14.13 ± 2.37 µg/mL |
| C=C1C[C@@H](O)[C@@H](Br)C(C)(C)[C@]12CC[C@](C)(Cl)[C@@H](Br)C2 [(-)-cartilagineol] | > 25 | – | – | – |
| lauriterol | – | 5.97 | 6.85 | CC50 [2]: 23.65 ± 2.30 µg/mL; ATCC® 30808™ IC50 ([1]; Table 2): 3.96 ± 0.76 µg/mL; ATCC® 30215™ IC50 [3]: 3.45 ± 0.63 µg/mL |
| C[C@@H]1[C@H](O)[C@@H](C)/C=C/C=C/C=C/C=C/C=C/C=C/C=C/[C@H](O[C@@H]2O[C@H](C)[C@@H](O)[C@H](N)[C@@H]2O)C[C@@H]2O[C@](O)(C[C@@H](O)C[C@@H](O)[C@H](O)CC[C@@H](O)C[C@@H](O)CC(=O)O[C@H]1C)C[C@H](O)[C@H]2C(=O)O [Amphotericin B] | – | > 1818.18 | > 1333.33 | CC50 at 24 h ([4]; j774a.1 macrophages): > 200 µg/mL; patients recover at least partially after its administration (Naegleria fowleri): 8%; IC50 [1, 5]: 0.11 ± 0.03 µg/mL (≈ 0.119 µM); IC50 [3]: 0.15 ± 0.02 µg/mL (≈ 0.162 µM) |
| CCCCCCCCCCCCCCCCOP(=O)([O-])OCC[N+](C)(C)C [Miltefosine] | – | 3.30 | 1.56 | CC50 at 24 h [4]: 52.1 ± 3.61 µg/mL (≈ 128 µM); IC50 [1, 5]: 15.8 ± 1.72 µg/mL (≈ 38.7 µM); IC50 [3]: 33.2 ± 2.95 µg/mL (≈ 81.6 µM) |
| C=C1CC(O)C(Br)C(C)(C)C12CC=C(C)CC2 (single isomer, unassigned; (-)) [(-)-10-bromochamigra-3,7(14)-dien-9-ol] | > 25 | – | – | – |
| C=C1CC(O)C(Br)C(C)(C)C12CCC(C)=C(Cl)C2 (single isomer, unassigned; (+)) [(+)-elatol] | – | 57.02 | 54.03 | CC50 at 24 h ([4]; j774a.1 macrophages): 20.5 ± 4.33 µg/mL (≈ 61.5 µM); IC50 ([1]; Naegleria fowleri, ATCC30808, Table 1, read-out: IC50): 0.36 ± 0.03 µg/mL (≈ 1.08 µM); IC50 [1, 5]: 0.36 ± 0.03 µg/mL (≈ 1.08 µM); IC50 [3]: 0.38 ± 0.06 µg/mL (≈ 1.14 µM) |
| C=C1C[C@H](O)[C@H](Br)C(C)(C)[C@@]12CCC(C)=C(Cl)C2 [(-)-elatol] | 12.27 ± 2.68 (≈ 36.8 µM) | 4.39 | – | CC50 [2]: 53.91 ± 4.28 µg/mL (≈ 162 µM); ATCC® 30808™ IC50 ([1]; Table 2): 12.27 ± 2.68 µg/mL |
| C=C1C[C@@H](O)[C@@H](Br)C(C)(C)[C@]12CC[C@](C)(Br)[C@@H](Cl)C2 [(+)-obtusol] | > 25 | – | – | – |
| C=C1C[C@H](O)CC(C)(C)[C@@]12CCC(C)=C(Cl)C2 [(+)-debromoelatol] | > 25 | – | – | – |
| C=C1CC[C@@H](Br)C(C)(C)[C@@]12CC[C@@](C)(Br)[C@H](Cl)C2 [(+)-obtusane] | > 25 | – | – | – |

Source: patent publication EP4541363A1, “USE OF THE (+)-ELATOL COMPOUND FOR TREATING OR PREVENTING A NAEGLERIA FOWLERI INFECTION” (Universidad de la Laguna, priority 2022, dated 2023)
